Mass density and refractive index data for one compound are collected here from the NIST ThermoML archive (doi:10.1016/j.fluid.2018.01.019).

± gives the expanded uncertainty stated by the source.

The nature of series [1]: xn = mol fraction of the nth substance listed. The conditions noted are these: 313.15 K; 101 kPa; Liquid; Vibrating tube method; x1 = 0.333.
Series [2] in a line: refractive index (Na D-line) (dimensionless); xn = mol fraction of the nth substance listed. The conditions noted are these: 313.15 K; 101 kPa; Liquid; Standard Abbe refractometry; x1 = 0.333.

By mass density is commonly meant mass per unit of volume. A word on the refractive index: it is a measure of how strongly the sample bends light. On to `C[N+](C)(C)C.[Cl-]` [tetramethylammonium chloride] + OCCO, for which the mass density in series [1] worked out at 1072.19 ± 0.19 kg/m3. Further, the refractive index in series [2] is recorded as 1.45599 ± 0.00033.
